Test results as given in publication PMC11129499, “The hepatoprotective effect of 4-phenyltetrahydroquinolines on carbon tetrachloride induced hepatotoxicity in rats through autophagy inhibition” (Biological Research, 2024).

Assays:
[1] = system: CCl4-induced hepatotoxicity; assay: CCl4-induced hepatotoxicity model, liver histopathology (METAVIR scoring); format: in vivo, Wistar albino male rats; set-up: key to activity grade (METAVIR): A0 = none; A1 = mild; A2 = moderate; A3 = sever; key to fibrosis score (METAVIR): F0 = no fibrosis; F1 = mild/moderate; F2 = significant; F3 = advanced fibrosis; F4 = cirrhosis; conditions: 14 days
Procedure: (§1) Rats were divided into eleven groups, with seven rats in each group. Group I, the control group, received corn oil (1 ml/kg body weight, i.p.) every 72 h for 14 days. Group II, the hepatotoxicity group, received CCl4 (1 ml/kg body weight, a 1:1 v/v mixture of CCl4 and corn oil, i.p.) every 72 h for 14 days. Groups III–VI, the treated groups, received compounds (1a, 1b, 2a, and 2b), respectively, (25 mg/kg body weight, suspended in 0.5% CMC, p.o.) every 24 h, as well as CCl4 (1 ml/kg body weight, a 1:1 v/v mixture of CCl4 and corn oil, i.p.) every 72 h for 14 days. Group VII, the positive control group, received silymarin (100 mg/kg, suspended in 0.5% CMC, p.o.) every 24 h, as well as CCl4 (1 ml/kg body weight, a 1:1 v/v mixture of CCl4 and corn oil, i.p.) every 72 h for 14 days. Groups VIII–XI, the safety profile groups, received only compounds (1a, 1b, 2a, and 2b), respectively, (25 mg/kg, suspended in 0.5% CMC, p.o.) every 24 h for 14 days.
(§2) Rats were euthanized 24 h after the last dose of treatment with an inhaled overdose of isoflurane. Blood was extracted through a cardiac puncture, left for coagulation, and the serum was obtained by centrifugation for 10 min at 5000 rpm (GBF501, Centrifuge Cencom-II, Selecta). Livers were collected, then dissected into portions. One portion was fixed overnight in 10% buffered formalin (Adwic—El Nasr Pharmaceutical Co., Egypt) for histological examination. Another portion was homogenized, centrifuged at 10,000 rpm for 10 min, and the supernatants were collected for further investigation. Total protein content of all homogenates were determined using the Pierce™ BCA Protein Assay Kit (Catalog number: 23227, Thermo-Fisher Scientific Co., USA) following the manufacturer’s instructions. Liver tissues and homogenates were stored at − 80 °C until used.
(§3) Serial sectioning was done on the formalin-fixed liver tissues, which were then processed into paraffin blocks. Multiple serial, 5-μm-thick sections were cut and mounted on glass slides. One section was stained by H&E stain to assess the activity, while the other was stained by Masson trichrome stain to assess fibrosis. Both activity and fibrosis were assessed using a light microscope (Olympus, CX 22LED) using the METAVIR scoring system. For activity, the number of inflammatory foci (lobular necrosis) and degree of portal inflammation (piece meal necrosis) were evaluated, and then a final histological activity score was given (A0 = none, A1 = mild, A2 = moderate, and A3 = sever). Meanwhile, fibrosis assessment was done on Masson trichrome stained sections. The fibrosis scored according to a 4-tiered system (F0 = no fibrosis, F1 = mild/moderate, F2 = significant, F3 = advanced fibrosis, and F4 = cirrhosis). Other pathologic features, such as the presence or absence of steatosis and/or apoptotic hepatocytes, were assessed if present.

[2] = system: Human hepatoma (HepG2) cells; assay: MTT in-vitro cytotoxicity assay on HepG2 cells; format: cell-based; conditions: HepG2, 24 h treatment, 7.8125-500 μM
Procedure: Human hepatoma (HepG2) cells were used to evaluate the in-vitro cytotoxicity of the newly synthesized compounds compared to tacrine as their structure-inspiring drug. The HepG2 cell line was obtained from ATCC. The cells were cultured in DMEM with high glucose, supplemented with 10% FBS, 100 U/ml penicillin, and 1% streptomycin were maintained in a 37 °C incubator with 5% CO2 in a humidified atmosphere. One day before the treatment, cells were seeded at a density of 1 × 10^4 cells/well in a sterile flat bottom 96-well tissue culture plate. After leaving the cells to adhere for 24 h, cells were treated with different concentrations (7.8125, 15.625, 31.25, 62.5, 125, 250, and 500 μM) of each compound as well as tacrine for 24 h in the 5% CO2 incubator.
Thereafter, cell viability was assessed using a 3-(4,5-dimethyl-2-thiazolyl)-2,5-diphenyl-tetrazolium bromide (MTT) assay obtained from Biobasic inc (Canada). Following the 24-h treatment period, MTT was added to the wells at a final concentration of 0.5 mg/mL, and the cells were incubated for 4 h in the dark. Subsequently, the media were carefully removed from the wells, and the formed formazan crystals were dissolved by adding 100 μL of DMSO. Absorbance readings were taken using a microplate reader (BioTek, USA), and the percentage cell viability was calculated for each condition relative to the control cells treated with the same DMSO concentration.

liver tissues = assay: In-vivo toxicity study (compounds only), liver histopathology (H&E, Masson trichrome); set-up: key to fibrosis score in liver sections (safety profile): F0 = no fibrosis; F1 = mild/moderate; F2 = significant; F3 = advanced fibrosis; F4 = cirrhosis; conditions: compound only, 25 mg/kg p.o. 14 days; for fibrosis score in liver sections (safety profile): Masson trichrome, METAVIR; for lobular inflammation in liver sections (safety profile): H&E, noted less frequently in Cpd 2b
Procedure: as §1, §2, §3

[3] = In-vivo toxicity study (compounds only), serum liver, lipid and kidney tests; conditions: compound only, 25 mg/kg p.o. every 24 h for 14 days
Procedure: (§4) Rats were divided into eleven groups, with seven rats in each group. Group I, the control group, received corn oil (1 ml/kg body weight, i.p.) every 72 h for 14 days. Group II, the hepatotoxicity group, received CCl4 (1 ml/kg body weight, a 1:1 v/v mixture of CCl4 and corn oil, i.p.) every 72 h for 14 days. Groups III–VI, the treated groups, received compounds (1a, 1b, 2a, and 2b), respectively, (25 mg/kg body weight, suspended in 0.5% CMC, p.o.) every 24 h, as well as CCl4 (1 ml/kg body weight, a 1:1 v/v mixture of CCl4 and corn oil, i.p.) every 72 h for 14 days. […]
(§5) Rats were euthanized 24 h after the last dose of treatment with an inhaled overdose of isoflurane. […] Total protein content of all homogenates were determined using the Pierce™ BCA Protein Assay Kit (Catalog number: 23227, Thermo-Fisher Scientific Co., USA) following the manufacturer’s instructions. […]
A variety of colorimetric serum diagnostic kits were used to assess the toxicity and hepatoprotective potential of the newly synthesized derivatives. Lipid profile parameters, including total cholesterol (TC) and triglycerides (TG), as well as kidney function tests, urea, and creatinine were measured to evaluate the toxicity profile. […]

[4] = system: tumor necrosis factor alpha (TNF-α); assay: CCl4 model, TNF-α ELISA in liver tissues; format: in vivo, Wistar albino male rats; conditions: CCl4 + compound 25 mg/kg p.o. daily, 14 days; vs hepatotoxicity group unless stated
Procedure: as §4, §5
(§6) The pro-inflammatory and pro-fibrotic cytokines tumor necrosis factor alpha (TNF-α) and transforming growth factor beta (TGF-β) were evaluated in liver tissues using ELISA kits (Catalog Numbers: CSB-E11987r and CSB-E04727r, CUSABIO, USA). For further investigation of the potential mechanism of action of the synthesized compounds, the levels of autophagy-related proteins, Beclin-1 (Catalog Number: CSB-EL002658RA, CUSABIO, USA) and LC3B (Catalog No. LS-F19802, Lifespan Biosciences, USA), were quantified in liver homogenates. […]

Beclin-1 = assay: CCl4 model, Beclin-1 ELISA in liver homogenates; format: in vivo, Wistar albino male rats; conditions: CCl4 + compound 25 mg/kg (silymarin 100 mg/kg) p.o. daily, 14 days
Procedure: as §4, §5, §6

[5] = system: CCl4-induced oxidative stress; assay: CCl4 model, oxidative stress markers (MDA, GSH) in liver homogenates; format: in vivo, Wistar albino male rats; conditions: CCl4 + compound 25 mg/kg p.o. daily, 14 days; vs hepatotoxicity group unless stated
Procedure: as §1, with “Groups VIII–XI, the safety profile groups, received only compounds (1a, 1b, 2a, and 2b), respectively, (25 mg/kg, suspended in 0.5% CMC, p.o.) every 24 h for 14 days.” left out
as §5
The level of reduced glutathione (GSH) was measured in liver tissue homogenates using a colorimetric kit for GSH (Cat.No.E-BC-K030-M, Elabscience, USA). Malondialdehyde (MDA) levels were determined as thiobarbituric acid reactive substances (TBARS) in liver homogenates according to the method of Draper and Hadley.

[6] = system: CCl4-induced hepatotoxicity; assay: CCl4-induced hepatotoxicity model, serum liver function tests; format: in vivo, Wistar albino male rats; conditions: CCl4 1 ml/kg i.p. every 72 h + compound 25 mg/kg p.o. daily, 14 days; vs hepatotoxicity group unless stated
Procedure: as §1, §2
A variety of colorimetric serum diagnostic kits were used to assess the toxicity and hepatoprotective potential of the newly synthesized derivatives. Lipid profile parameters, including total cholesterol (TC) and triglycerides (TG), as well as kidney function tests, urea, and creatinine were measured to evaluate the toxicity profile. Liver function tests, including alanine transaminase (ALT), aspartate transaminase (AST), alkaline phosphatase (ALP), and total bilirubin (TBIL) were used for the assessment of both hepatotoxicity and hepatoprotective potential. All diagnostic kits were purchased from Biodiagnostics, Egypt, and were used and stored according to the manufacturer’s instructions.

[7] = system: transforming growth factor beta (TGF-β); assay: CCl4 model, TGF-β ELISA in liver tissues; format: in vivo, Wistar albino male rats; conditions: CCl4 + compound 25 mg/kg p.o. daily, 14 days; vs hepatotoxicity group unless stated
Procedure: as §4, §5, §6

LC3B = assay: CCl4 model, LC3B ELISA in liver homogenates; format: in vivo, Wistar albino male rats; conditions: CCl4 + compound 25 mg/kg (silymarin 100 mg/kg) p.o. daily, 14 days
Procedure: as §4, §5, §6

[8] = system: alpha-smooth muscle actin (α-SMA) positive HSCs/myofibroblasts; assay: CCl4 model, α-SMA immunohistochemistry of liver sections; format: in vivo, Wistar albino male rats; conditions: CCl4 + compound 25 mg/kg p.o. daily, 14 days; vs hepatotoxicity group
Procedure: as §1
From paraffin-embedded blocks of liver tissues, 4- to 5-μm-thick sections were cut using a semi-automated microtome. […] They were stained by alpha-smooth muscle actin (α-SMA) primary antibody (Clone 1A4, ready-to-use, mouse monoclonal antibody, Dako) using the autostainer DAKO link 48. […] Using Image J software, activated HSCs/myofibroblasts were counted in the five high power fields. […] Only cells with well-visible nuclei were counted.

[9] = CCl4 + compound 25 mg/kg p.o. daily
[10] = CCl4 + compound 25 mg/kg (silymarin 100 mg/kg) p.o. daily

Compound	fibrosis score (METAVIR) ([1]; CCl4 + compound 25 mg/kg (silymarin 100 mg/kg) p.o. daily, hepatotoxicity group F4)	steatosis and apoptotic cells in liver sections [1, 9]	activity grade (METAVIR) ([1]; CCl4 + compound 25 mg/kg p.o. daily, hepatotoxicity group A3)	IC50 [2]	fibrosis score in liver sections (safety profile) (liver tissues)	total cholesterol (safety profile) [3]	triglyceride levels (safety profile) [3]	improvement of liver fibrosis / architecture, in words [1, 10]	lobular inflammation in liver sections (safety profile) (liver tissues)	TNF-α level in liver tissues [4]	lobular and portal inflammation (activity), in words [1, 9]	expression of Beclin-1 protein (Beclin-1)	MDA levels in liver homogenates [5]	serum ALT [6]	serum AST [6]	TGF-β level in liver tissues [7]	expression of LC3B protein (LC3B)	number of α-SMA positive cells / 5 HPFs [8]
CN(C)c1ccc(-c2c3c([nH]c(=O)c2C#N)CCCC3)cc1 [Cpd 1a, 4-(4-(dimethylamino)phenyl)-1,2,5,6,7,8-hexahydro-2-oxoquinoline-3-carbonitrile]	F3	Macrovesicular steatosis and apoptotic cells were still detected	A2	181 µM	F0	significantly lowering	significantly lowering											
N#Cc1c(-c2ccc(O)cc2)c2c([nH]c1=O)CCCC2 [Cpd 1b, 1,2,5,6,7,8-hexahydro-4-(4-hydroxyphenyl)-2-oxoquinoline-3-carbonitrile]				174 µM	F0			better improvement in fibrosis score	mild, insignificant lobular inflammation (activity grade 1)									
CN(C)c1ccc(-c2c(C#N)c(N)nc3c2CCCC3)cc1 [Cpd 2a, 2-Amino-4-(4-(dimethylamino)phenyl)-5,6,7,8-tetrahydroquinoline-3-carbonitrile]		No steatosis or apoptotic cells were detected		171 µM	F0			best protective effect on the liver sections		better effect on decreasing the level of both cytokines relative to compounds 1a and 1b and silymarin	improved markedly	greater impact on inhibiting autophagy compared to the other compounds tested	highly superior to compounds 1a, 1b and silymarin	as beneficial as silymarin	as beneficial as silymarin	better effect on decreasing the level of both cytokines relative to compounds 1a and 1b and silymarin	greater impact on inhibiting autophagy compared to the other compounds tested	better levels of significance, closely aligning with silymarin
N#Cc1c(N)nc2c(c1-c1ccc(O)cc1)CCCC2 [Cpd 2b, 2-Amino-5,6,7,8-tetrahydro-4-(4-hydroxyphenyl)quinoline-3-carbonitrile]				169 µM	F0			better improvement in fibrosis score	mild, insignificant lobular inflammation (activity grade 1)	better effect on decreasing the level of both cytokines relative to compounds 1a and 1b and silymarin		greater impact on inhibiting autophagy compared to the other compounds tested	highly superior to compounds 1a, 1b and silymarin	as beneficial as silymarin	as beneficial as silymarin	better effect on decreasing the level of both cytokines relative to compounds 1a and 1b and silymarin	greater impact on inhibiting autophagy compared to the other compounds tested	better levels of significance, closely aligning with silymarin
Nc1c2c(nc3ccccc13)CCCC2 [tacrine, Tacrine, reference compound]				124 µM														
